Test results as given in US4011328A, “Derivatives of pyridine-3-acetic acid, process for their preparation and applications thereof” (SERDEX - Societe d'Etudes, de Recherches, de Diffusion et …, priority 1973, dated 1977).

Experiments:
Format in all cases: in vivo
[1] = tested on: carragheen-induced localized oedema; assay: Acute oedema with carragheen, anti-inflammatory power; conditions: Rattus norvegicus, po; male rats; buccally 1 hour before carragheen; oedema 3 hours after carragheen
Description: (§1) b. Anti-inflammatory power.
1. Acute oedema with carragheen.
(Winster C. A., Risley R. A., Nuss G. W. -- Proc.Soc.Biol. Med.1962,3,544-7).
The injection, under the arch of the rat's foot, of 0.05 ml of an aqueous gel with 1% carragheen produces a localized oedema which can be measured with an electric plethysmometer of the mercury type.
The percentage of inflammation can be calculated by measuring the volume of the […] foot before and 3 hours after the carragheen injection.
The treatment is given buccally, 1 hour before the carragheen.
The test is carried out on homogeneous groups of ten male rats of 180 ± 10 g.
For each animal the oedema is measured as follows: [formula]
When the percentage of oedema is known for the pilot group, the protection observed under the effect of the substance tested is deducted therefrom for the treated groups.

[2] = tested on: 2-phenyl-1,4-benzoquinone-induced stretching of the rear feet and torsion of the trunk; assay: Siegmund test, analgesic power: phenylbenzoquinone-induced stretchings/torsions; conditions: Mus musculus, ip; mice; substance given 1 hour before intraperitoneal phenylbenzoquinone; observed 5th-10th minute
Description: The intraperitoneal injection of 0.25 ml of a hydroalcoholic solution of 2-phenyl-1,4-benzoquinone at a concentration of 0.02% produces in mice a particular syndrom characterized by the stretching of the rear feet and the torsion of the trunk.
The test is carried out on homogeneous groups of 20 to 30 mice with an average weight of 20 g.
The substance to be studied is administered to them at the time "0." One hour later the phenylbenzoquinone is administered intraperitoneally. The animals are observed individually for 5 minutes, between the 5th and 10th minute following the injection of the phenyl benzoquinone. The number of stretchings performed by each animal during the observation period is noted.
The percentage of activity of the substance is calculated by comparing the number of torsions performed by the animals and those performed by pilot animals.

[3] = tested on: Turfyl nicotinate (Trafuril)-induced erythema; assay: Erythema with Turfyl nicotinate (Trafuril), anti-inflammatory power; conditions: Cavia porcellus, po; male albino guinea-pigs; buccally 1 hour before test; result at the end of 5 minutes
Description: as §1
2. Erythema with Turfyl nicotinate(Trafuril).
The NAINING method is used (Br.jl.Pharmacol. 1963-21-104-12), slightly modified:
The test is carried out on homogeneous groups of six to 12 male albino guinea-pigs weighing 300-400 g, the skin of the back having been carefully plucked the day before.
On the day of the test an antibiogramme disc saturated with an alcoholic solution at 5% of Turfyl nicotinate is applied to the lumbar region for 1 minute.
The result is observed at the end of 5 minutes.
The results are recorded on an "all or nothing" basis, according to which an erythema appears at the place in which the disc was applied.
The treatment is administered buccally 1 hour before the test, with a uniform volume of 1 ml per kg of body weight; the products are placed in homogeneous suspension by the aid of 3% of gum arabic.
The pilot animals are given an equal volume of vehicle.
The percentage of erythema produced in the treated animals is compared with that of the pilot group observed at the same time.

Row | Structure (SMILES) | ED50 [1] [mg/kg] | ED50 [2] [mg/kg] | ED50 [3] [mg/kg]
1 | COc1ccc(-c2nc(C)c(CC(=O)O)cc2-c2ccc(Cl)cc2)cc1 [Example 3] | 28 | 0.9 | 5.2
2 | Cc1ccc2c(c1)-c1nc(C)c(CC(=O)O)cc1CO2 [Example 1] | 16 | 150 | 78
